Measurements as given in ChEMBL document CHEMBL1201862, “PubChem BioAssay data set” (2004).
Where “and” joins values, the source holds several entries; their conditions need not be identical. Equal entries are not always repeated. Calls of active or inactive are those of the source.

How the values were obtained:
H9c2 = assay: cells; format: functional, cell-based; settings: Rattus norvegicus, H9c2, Myocardium;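 also: confirmatory concentration-response retest of ultra-high-throughput screening hits for modulation of myocardial damage; cell death induced by hydrogen peroxide oxidative stress; compound pretreatment for 60 min then peroxide exposure for 2 h; potency is for protecting the cells against peroxide damage rather than for killing them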
[1] = viability of uninfected HEp-2 cells – cell-based, HTS, cytotoxicity control for RSV inhibitor project, dose response (AID 2410); format: functional; settings: human respiratory syncytial virus
Cytochrome P450 3A4 = Cytochrome P450 3A4 (Homo sapiens, UniProt P08684);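 also: CYP3A4 tested as one member of a cytochrome P450 panel screen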
Cytochrome P450 3A4, sequence (P08684 whole entry): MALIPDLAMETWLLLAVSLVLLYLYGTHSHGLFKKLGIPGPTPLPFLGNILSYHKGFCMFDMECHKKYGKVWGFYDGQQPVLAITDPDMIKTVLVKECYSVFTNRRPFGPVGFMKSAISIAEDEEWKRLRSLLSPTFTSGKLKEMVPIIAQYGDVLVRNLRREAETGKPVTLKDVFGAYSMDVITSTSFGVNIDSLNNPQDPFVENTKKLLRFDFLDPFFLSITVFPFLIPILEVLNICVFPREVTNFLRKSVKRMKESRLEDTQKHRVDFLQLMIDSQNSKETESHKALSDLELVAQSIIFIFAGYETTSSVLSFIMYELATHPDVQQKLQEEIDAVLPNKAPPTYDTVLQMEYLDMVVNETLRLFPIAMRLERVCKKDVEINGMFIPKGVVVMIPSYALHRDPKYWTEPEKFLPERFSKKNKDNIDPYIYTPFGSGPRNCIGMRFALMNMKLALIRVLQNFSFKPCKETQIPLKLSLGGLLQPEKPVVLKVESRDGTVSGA

[2] = target: T1, Heat shock factor protein 1 (Mus musculus, UniProt P38532); assay: enhancement of HSF1-driven luciferase signal – cell-based, NIH3T3, luminescence, dose retest, confirmation (AID 435004); format: functional;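 also: stress induced by proteasome inhibitor MG132 added 30 min after compound; luciferase reporter driven by HSF1 response element in NIH3T3 cells; actives raise luminescence as potentiators of the MG132 stress response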
T1 sequence (P38532 whole entry): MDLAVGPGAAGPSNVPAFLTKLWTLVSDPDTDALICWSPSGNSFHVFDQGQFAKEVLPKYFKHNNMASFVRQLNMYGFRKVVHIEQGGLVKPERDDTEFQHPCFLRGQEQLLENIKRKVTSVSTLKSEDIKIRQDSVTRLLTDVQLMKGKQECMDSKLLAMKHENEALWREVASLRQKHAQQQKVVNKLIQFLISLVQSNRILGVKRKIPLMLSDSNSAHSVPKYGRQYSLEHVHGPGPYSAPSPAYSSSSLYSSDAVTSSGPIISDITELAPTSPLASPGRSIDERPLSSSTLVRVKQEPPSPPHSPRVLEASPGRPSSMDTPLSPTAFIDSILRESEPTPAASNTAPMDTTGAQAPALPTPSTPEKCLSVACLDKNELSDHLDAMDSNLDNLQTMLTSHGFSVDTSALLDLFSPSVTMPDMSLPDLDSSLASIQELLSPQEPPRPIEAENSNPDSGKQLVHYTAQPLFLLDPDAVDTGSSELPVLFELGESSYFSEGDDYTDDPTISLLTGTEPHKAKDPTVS

Cytochrome P450 1A2 = target: T2, Cytochrome P450 1A2 (Homo sapiens, UniProt P05177);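 also: PubChem cytochrome P450 panel assay, CYP1A2 panel member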
T2 sequence (P05177 whole entry): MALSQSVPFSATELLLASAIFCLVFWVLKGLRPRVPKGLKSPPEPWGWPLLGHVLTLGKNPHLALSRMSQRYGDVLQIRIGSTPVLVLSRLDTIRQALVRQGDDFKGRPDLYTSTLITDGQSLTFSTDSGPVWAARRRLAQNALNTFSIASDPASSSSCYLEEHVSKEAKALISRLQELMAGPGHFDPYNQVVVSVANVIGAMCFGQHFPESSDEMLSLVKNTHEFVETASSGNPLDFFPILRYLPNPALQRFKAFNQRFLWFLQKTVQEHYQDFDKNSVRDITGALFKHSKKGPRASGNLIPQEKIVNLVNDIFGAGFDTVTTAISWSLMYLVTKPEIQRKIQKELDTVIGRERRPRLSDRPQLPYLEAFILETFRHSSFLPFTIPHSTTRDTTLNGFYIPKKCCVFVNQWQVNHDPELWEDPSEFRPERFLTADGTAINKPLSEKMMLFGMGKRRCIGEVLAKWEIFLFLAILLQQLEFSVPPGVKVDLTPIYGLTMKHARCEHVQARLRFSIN

[3] = NIH-3T3 fibroblast cytotoxicity, dose response, cytotoxicity control, cell-based, fluorescence, Alamar Blue, secondary assay (AID 2327); format: functional;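 also: NIH-3T3 mouse fibroblasts cultured with fluconazole at 8 µg/mL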
[4] = fluconazole-exposed Candida albicans growth modulators – fluorescence, retest, confirmation (AID 2467); format: functional, cell-based
Cytochrome P450 2C19 = Cytochrome P450 2C19 (Homo sapiens, UniProt P33261); assay: Cytochrome panel assay with activity outcomes. Panel member name: p450-cyp2c19 Compounds with AC50 equal or less than 10 uM are considered active; format: functional
Cytochrome P450 2C19, sequence (P33261 whole entry, the tested form may be a part): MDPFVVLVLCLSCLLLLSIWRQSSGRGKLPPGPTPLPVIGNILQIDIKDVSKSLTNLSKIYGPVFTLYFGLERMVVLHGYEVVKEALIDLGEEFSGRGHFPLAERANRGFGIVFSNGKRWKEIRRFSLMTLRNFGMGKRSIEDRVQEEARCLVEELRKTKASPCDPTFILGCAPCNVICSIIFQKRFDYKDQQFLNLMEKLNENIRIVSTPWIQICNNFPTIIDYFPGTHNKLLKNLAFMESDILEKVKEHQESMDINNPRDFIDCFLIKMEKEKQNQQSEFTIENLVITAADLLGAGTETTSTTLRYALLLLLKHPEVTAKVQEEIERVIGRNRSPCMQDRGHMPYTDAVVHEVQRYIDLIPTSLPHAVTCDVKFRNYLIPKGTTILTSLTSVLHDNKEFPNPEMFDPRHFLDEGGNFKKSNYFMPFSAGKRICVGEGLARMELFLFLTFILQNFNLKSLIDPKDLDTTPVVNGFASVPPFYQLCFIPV

[5] = HIV-1 AD8 envelope cell-cell fusion blockers – cherry-pick, dose response (AID 652062); format: functional, cell-based;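 also: luciferase signal from cell-cell fusion driven by HIV-1 clade B AD8 Env; potency is for inhibitors of fusion seen as a drop in luminescence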
Cytochrome P450 2D6 = Cytochrome P450 2D6 (Homo sapiens, UniProt P10635);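 also: CYP2D6 member of a cytochrome P450 panel assay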
Cytochrome P450 2D6, sequence (P10635 whole entry): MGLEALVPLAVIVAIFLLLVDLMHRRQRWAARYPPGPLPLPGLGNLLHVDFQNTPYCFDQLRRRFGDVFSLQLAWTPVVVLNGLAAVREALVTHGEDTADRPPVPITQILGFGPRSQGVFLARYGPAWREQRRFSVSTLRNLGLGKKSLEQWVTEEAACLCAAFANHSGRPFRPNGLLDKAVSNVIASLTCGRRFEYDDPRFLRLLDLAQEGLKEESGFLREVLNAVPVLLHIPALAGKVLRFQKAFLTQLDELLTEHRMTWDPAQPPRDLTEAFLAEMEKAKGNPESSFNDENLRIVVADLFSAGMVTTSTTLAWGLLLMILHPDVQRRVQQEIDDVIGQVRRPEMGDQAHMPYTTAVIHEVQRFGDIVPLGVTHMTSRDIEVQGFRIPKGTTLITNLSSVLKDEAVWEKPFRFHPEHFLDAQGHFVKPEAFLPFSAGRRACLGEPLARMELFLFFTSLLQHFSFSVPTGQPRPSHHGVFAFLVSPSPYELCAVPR

Protein skinhead-1 = target: T3, Protein skinhead-1 (Caenorhabditis elegans, UniProt P34707); format: functional
T3 sequence (P34707 whole entry): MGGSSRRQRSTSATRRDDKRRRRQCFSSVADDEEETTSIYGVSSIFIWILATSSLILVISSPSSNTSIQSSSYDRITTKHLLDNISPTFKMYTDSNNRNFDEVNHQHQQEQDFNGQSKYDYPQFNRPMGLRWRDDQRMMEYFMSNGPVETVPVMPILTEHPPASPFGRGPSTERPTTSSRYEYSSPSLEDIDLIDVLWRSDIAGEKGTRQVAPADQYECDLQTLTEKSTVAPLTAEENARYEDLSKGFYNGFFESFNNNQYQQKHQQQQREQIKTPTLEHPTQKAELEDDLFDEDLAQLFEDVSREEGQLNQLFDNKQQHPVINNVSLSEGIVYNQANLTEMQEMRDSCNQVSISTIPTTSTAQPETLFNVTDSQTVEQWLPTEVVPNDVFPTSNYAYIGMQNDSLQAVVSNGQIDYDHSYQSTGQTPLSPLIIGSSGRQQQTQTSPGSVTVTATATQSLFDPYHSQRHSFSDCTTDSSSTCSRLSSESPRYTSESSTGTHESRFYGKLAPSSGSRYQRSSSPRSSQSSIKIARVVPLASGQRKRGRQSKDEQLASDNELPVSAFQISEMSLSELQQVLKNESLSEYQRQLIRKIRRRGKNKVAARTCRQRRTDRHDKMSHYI

Cytochrome P450 2C9 = Cytochrome P450 2C9 (Homo sapiens, UniProt P11712)
Cytochrome P450 2C9, sequence (P11712 whole entry, the tested form may be a part): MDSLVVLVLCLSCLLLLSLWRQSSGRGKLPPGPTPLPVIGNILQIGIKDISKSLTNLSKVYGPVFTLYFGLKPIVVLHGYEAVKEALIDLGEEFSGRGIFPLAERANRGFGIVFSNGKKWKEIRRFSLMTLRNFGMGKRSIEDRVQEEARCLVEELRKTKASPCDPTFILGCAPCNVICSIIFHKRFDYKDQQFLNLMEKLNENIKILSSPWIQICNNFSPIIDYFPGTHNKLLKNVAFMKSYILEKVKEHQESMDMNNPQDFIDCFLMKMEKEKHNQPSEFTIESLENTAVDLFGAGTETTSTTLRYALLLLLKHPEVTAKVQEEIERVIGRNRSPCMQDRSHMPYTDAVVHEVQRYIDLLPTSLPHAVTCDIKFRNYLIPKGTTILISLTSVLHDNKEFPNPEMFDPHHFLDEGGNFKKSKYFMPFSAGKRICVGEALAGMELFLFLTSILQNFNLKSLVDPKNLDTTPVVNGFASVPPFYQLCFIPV

[6] = target: T4, RNA-binding protein pos-1 (Caenorhabditis elegans, UniProt G5EF15); assay: disruptors of C. elegans POS-1 RNA interaction – biochemical, fluorescence polarization, dose response (AID 1964);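 also: purified POS-1 fused to maltose binding protein made in E. coli; potency of compounds blocking POS-1 binding to fluorescent RNA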
T4 sequence (G5EF15 whole entry): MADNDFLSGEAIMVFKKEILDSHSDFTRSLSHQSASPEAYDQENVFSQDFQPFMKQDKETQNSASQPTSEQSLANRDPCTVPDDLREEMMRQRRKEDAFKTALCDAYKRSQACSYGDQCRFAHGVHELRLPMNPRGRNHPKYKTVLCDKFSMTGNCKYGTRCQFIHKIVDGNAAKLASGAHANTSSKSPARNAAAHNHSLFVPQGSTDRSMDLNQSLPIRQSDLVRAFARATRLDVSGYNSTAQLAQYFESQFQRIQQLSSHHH

[7] = target: T5, Zinc finger protein mex-5 (Caenorhabditis elegans, UniProt Q9XUB2); assay: potency of MEX-5 RNA-binding blockers – biochemical, C. elegans, fluorescence polarization, dose response (AID 1960)
T5 sequence (Q9XUB2 whole entry): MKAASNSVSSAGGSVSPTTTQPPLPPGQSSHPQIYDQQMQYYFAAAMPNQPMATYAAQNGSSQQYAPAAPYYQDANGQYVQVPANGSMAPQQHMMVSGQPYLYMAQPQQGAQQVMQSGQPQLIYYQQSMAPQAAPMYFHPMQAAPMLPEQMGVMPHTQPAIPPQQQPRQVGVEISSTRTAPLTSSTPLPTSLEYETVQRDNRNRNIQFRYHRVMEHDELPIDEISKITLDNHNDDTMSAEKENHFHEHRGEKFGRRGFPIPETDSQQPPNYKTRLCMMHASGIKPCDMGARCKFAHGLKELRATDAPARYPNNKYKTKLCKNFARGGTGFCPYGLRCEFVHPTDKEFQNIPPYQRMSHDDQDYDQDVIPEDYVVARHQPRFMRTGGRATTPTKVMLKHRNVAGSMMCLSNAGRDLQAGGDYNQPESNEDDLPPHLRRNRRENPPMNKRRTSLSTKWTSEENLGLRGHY

INS1 = assay: INS-1E survival protection against cytokine death – cell-based, luminescence, retest, dose response (AID 449756); format: functional; settings: Rattus norvegicus;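 also: cell death triggered by IL-1 beta plus TNF-alpha plus IFN-gamma mixture; protective hits raise ATP signal compared with cytokine alone wells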

CCOC(=O)c1cnc(Nc2nc3ccccc3o2)nc1CSc1nnc(C)s1
IC50 (H9c2): 13.4 µM (active)

COc1ccc(Br)cc1C(=O)Nc1cccc(NC(=O)c2ccco2)c1
CC50 [1]: 29.1 µM (active) | IC50 (H9c2): > 79 µM (inactive)

CCCCCOC(=O)CSc1nnc(-c2ccccc2)c(O)n1
AC50 (Cytochrome P450 3A4): 22.4 µM (inconclusive)

Cc1ccc(NC(=NOCc2ccc(Cl)cc2Cl)c2nonc2N)c(C)c1
EC50 [2]: > 260 µM (inactive)

C[C@H](NC(=O)[C@@H]1CSC2c3ccccc3C(=O)N21)C(=O)NCCc1ccccc1 (stereo not given in full)
EC50 [2]: 248 µM (active)

Cn1cccc1C(=O)N1CCC2(CCCN(C(=O)Nc3cccc(F)c3)C2)CC1
AC50 (Cytochrome P450 3A4): 10 µM (inconclusive)

Brc1ccc2c(c1)C(c1cccnc1)=NNC(c1cccs1)=N2
EC50 [2]: 93.6 µM (active)

C=CCNC(=S)N/N=C/c1ccc(-c2ccc(Br)cc2)o1
EC50 [2]: 134 µM (active)

COC(=O)Sc1nc(N2CCOCC2)c2c(c1C#N)CC(C)(C)OC2
IC50 (H9c2): 38.6 µM (inactive)

CC1=CC(=O)N(c2cccc(C(F)(F)F)c2)C1c1ccc(Cl)cc1 (stereo not given)
AC50 (Cytochrome P450 1A2): 14.1 µM (inconclusive) | AC50 (Cytochrome P450 3A4): 10 µM (inconclusive)

COC(=O)/C(=C\c1ccc([N+](=O)[O-])o1)NC(=O)c1ccccc1
EC50 [3]: > 160 µM (inactive) | EC50 [4]: 0.53 µM (active)

COC(=O)c1ccccc1NC(=O)CSc1nc(Nc2ccccc2)nc(N2CCOCC2)n1
EC50 [2]: > 260 µM (inactive)

O=C(NCC1CCCO1)C1CCC(=O)N1CCc1ccccc1 (stereo not given)
AC50 (Cytochrome P450 2C19; read-out: AC50): 7.08 µM (inconclusive)

Cc1nn2c(-c3cccc(NC(=O)c4ccco4)c3)nnc2c2ccccc12
IC50 (H9c2): > 79 µM (inactive)

CCn1ncc(C2=NOC(C(=O)Nc3ccc(C)cc3)C2)c1C (stereo not given)
AC50 [5]: 32.8 µM (active)

CC(=O)Nc1cccc(-c2cc(NC=O)c3ncc(-c4ccc(C(C)=O)cc4)n3c2)c1
IC50 (H9c2): 11.2 µM (active)

CCn1cnc2c1c(=O)n(Cc1nnc3n1-c1ccccc1SC3)c(=O)n2Cc1ccccc1
EC50 [2]: > 260 µM (inactive)

Cc1[nH]c2ccccc2c1/C=C/c1cc[n+](C)cc1
EC50 [3]: 120 µM (inconclusive) | EC50 [4]: > 38 µM (not active) | AC50 (Cytochrome P450 2D6): 17.8 µM (inconclusive)

COc1ccc(NC(=O)N(C)[C@H]2C[C@H]3c4[nH]c5ccc(-c6ccc7c(c6)OCO7)cc5c4CCN3C[C@H]2[C@H](C)O)cc1
IC50 (H9c2): > 79 µM (inactive)

O=c1c2ccccc2nnn1CSc1ncnc2ccccc12
EC50 [2]: 10.7 µM (active)

Cc1ccc(OCc2ccc(C(=O)Nc3nccs3)o2)cc1C
IC50 (Protein skinhead-1): > 100 µM (inactive) | AC50 (Cytochrome P450 2D6): 15.8 µM (inconclusive)

COC(=O)C1(CC(C)C)C=C2C(=C(c3ccccc3)C(=O)C2C)CN1 (stereo not given)
AC50 (Cytochrome P450 1A2): 15.8 µM (inconclusive) | AC50 (Cytochrome P450 3A4): 25.1 µM (inconclusive)

O=C1c2ccccc2NC(c2ccc3c(c2)OCO3)N1O (stereo not given)
AC50 (Cytochrome P450 2D6): 14.1 µM (inconclusive) | AC50 (Cytochrome P450 3A4): 22.4 µM (inconclusive) | AC50 (Cytochrome P450 2C9): 14.1 µM (inconclusive)

COc1ccc(C2C(C(=O)N3CCOCC3)CCC(=O)N2c2ccc(OC)cc2)cc1 (stereo not given)
AC50 (Cytochrome P450 1A2): 0.0631 µM (inconclusive) | AC50 (Cytochrome P450 3A4): 17.8 µM (inconclusive)

Cc1ccc2[nH]c(C)c(/C=C3/C(=N)N4N=C(CC(=O)N5CCOCC5)SC4=NC3=O)c2c1
EC50 [6]: 38.3 µM (active) | EC50 [7]: > 300 µM (inconclusive) | IC50 (Protein skinhead-1): > 100 µM (inactive)

COc1ccc(CNc2nc(-c3ccc(N(C)C)cc3)nc3ccccc23)c(OC)c1
AC50 (Cytochrome P450 2D6): 25.1 µM (inconclusive) | AC50 (Cytochrome P450 3A4): 5.01 µM (inconclusive)

C[C@@H]1OC=C2[C@@H](O)[C@H]3O[C@H]3C(=O)[C@]23[C@@H]2O[C@H](C)C(C4=C2[C@@H](O)[C@H]2O[C@@H]2C4=O)[C@@H]13
AC50 (Cytochrome P450 2C19): inconclusive

COc1cc(C(=O)Nc2ccc(S(=O)(=O)N3CCc4ccccc43)cc2)cc(OC)c1OC
EC50 [2]: > 260 µM (inactive)

O=C(NC12CC3CC(CC(C3)C1)C2)N1CCN(c2nc(-c3ccccc3)cs2)CC1
AC50 (Cytochrome P450 1A2): 6.31 µM (inconclusive) | AC50 (Cytochrome P450 3A4): 11.2 µM (inconclusive)

CC1=Nc2ccccc2/C1=C/c1nc(-c2ccc(C)s2)oc1O
EC50 [2]: 21.4 µM (active)

O=C(c1cc(COc2cccc(C(F)(F)F)c2)on1)N1CCC(c2ccncc2)CC1
EC50 [3]: > 150 µM (inactive) | EC50 [4]: > 38 µM (not active) | AC50 (INS1): 5.33 µM (active) | AC50 [5]: 6.22 µM (active)

COc1ccccc1OCC(=O)Nc1cccc(-c2nnc(-c3ccco3)o2)c1
IC50 (H9c2): > 79 µM (inactive)

O=S(=O)(Nc1nc2ccccc2s1)c1ccc(Br)s1
EC50 [3]: > 150 µM (inactive) | EC50 [4]: 1.94 µM (active)

Cn1c2ccc(F)cc2c2ncn(CCN3CCOCC3)c(=O)c21
EC50 [2]: > 260 µM (inactive)

COc1ccc(CCNC(=O)c2c(O)c3ccccc3n(C)c2=O)cc1
EC50 [3]: 72.2 µM (active) | EC50 [4]: > 38 µM (not active)

N[C@H](C(=O)O)c1cc(O)cc(O)c1
AC50 (Cytochrome P450 2C19; read-out: AC50): 15.8 µM (inconclusive) and 10 µM (inconclusive) | AC50 (Cytochrome P450 1A2): 31.6 µM (inconclusive)

CCOC(=O)COc1ccc(/C=C2/S/C(=N/c3ccccc3)N(Cc3cccnc3)C2=O)cc1OC
EC50 [2]: 31.7 µM (active)

O=C(CC(c1ccco1)S(=O)(=O)c1ccccc1)c1ccc(F)cc1 (stereo not given)
EC50 [2]: > 260 µM (inactive)

Cc1ccc(-c2csc(NC(=O)Cn3[nH]c(=O)c4ccccc4c3=O)n2)cc1
IC50 (H9c2): > 79 µM (inactive)

CN(C)Cc1ccccc1-c1cncnc1NCc1cccs1
AC50 (Cytochrome P450 3A4): 1.26 µM (inconclusive)
